Experimental data as given in patent US8802597B2, “Herbicidal pyrimidines” (E I du Pont de Nemours and Company, priority 2003, dated 2014).

Experiments:
Assay in all cases: Test B flooded paddy test
Format in all cases: in vivo
Conditions in all cases: Flood, scale 0 to 100
[1] = system: duck salad (Heteranthera limosa)
Procedure, shortened: (§1)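 Rice, umbrella sedge, duck salad and barnyardgrass grown to 2-leaf stage under flooded paddy conditions and treated with formulated test chemicals. Kept in greenhouse 13–15 days, then visually rated against untreated controls on a 0–100 scale (0 no effect, 100 complete control).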

[2] = system: barnyardgrass (Echinochloa crus-galli)
Procedure, shortened: as §1

[3] = system: umbrella sedge (Cyperus difformis)
Procedure, shortened: as §1

rice (Oryza sativa) = system: rice (Oryza sativa)
Procedure, shortened: as §1

[4] = Heteranthera limosa, 125 g ai/ha, read-out: Plant response rating, Ducksalad
[5] = Heteranthera limosa, 500 g ai/ha, read-out: Plant response rating, Ducksalad
[6] = Echinochloa crus-galli, 125 g ai/ha, read-out: Plant response rating, Barnyardgrass
[7] = Echinochloa crus-galli, 500 g ai/ha, read-out: Plant response rating, Barnyardgrass
[8] = Cyperus difformis, 125 g ai/ha, read-out: Plant response rating, Sedge, Umbrella
[9] = Cyperus difformis, 500 g ai/ha, read-out: Plant response rating, Sedge, Umbrella
[10] = Oryza sativa, 125 g ai/ha, read-out: Plant response rating, Rice
[11] = Oryza sativa, 500 g ai/ha, read-out: Plant response rating, Rice

## CCOC(=O)c1nc(-c2ccc(Cl)cc2)nc(N)c1Cl [Compound 64, ethyl 6-amino-5-chloro-2-(4-chlorophenyl)-4-pyrimidinecarboxylate]
[1]; Heteranthera limosa, 62 g ai/ha, read-out: Plant response rating, Ducksalad
  pest or weed control at 62 g/ha: 80%
[1]; [4]
  pest or weed control at 125 g/ha: 90%
[1]; Heteranthera limosa, 250 g ai/ha, read-out: Plant response rating, Ducksalad
  pest or weed control at 250 g/ha: 100%
[1]; [5]
  pest or weed control at 500 g/ha: 100%
[2]; Echinochloa crus-galli, 62 g ai/ha, read-out: Plant response rating, Barnyardgrass
  pest or weed control at 62 g/ha: 0%
[2]; [6]
  pest or weed control at 125 g/ha: 0%
[2]; Echinochloa crus-galli, 250 g ai/ha, read-out: Plant response rating, Barnyardgrass
  pest or weed control at 250 g/ha: 0%
[2]; [7]
  pest or weed control at 500 g/ha: 0%
[3]; Cyperus difformis, 62 g ai/ha, read-out: Plant response rating, Sedge, Umbrella
  pest or weed control at 62 g/ha: 0%
[3]; [8]
  pest or weed control at 125 g/ha: 0%
[3]; Cyperus difformis, 250 g ai/ha, read-out: Plant response rating, Sedge, Umbrella
  pest or weed control at 250 g/ha: 70%
[3]; [9]
  pest or weed control at 500 g/ha: 90%
Rice (Oryza sativa); Oryza sativa, 62 g ai/ha, read-out: Plant response rating, Rice
  plant injury at 62 g/ha: 0%
Rice (Oryza sativa); [10]
  plant injury at 125 g/ha: 0%
Rice (Oryza sativa); Oryza sativa, 250 g ai/ha, read-out: Plant response rating, Rice
  plant injury at 250 g/ha: 0%
Rice (Oryza sativa); [11]
  plant injury at 500 g/ha: 0%

## Cc1ccc(-c2nc(N)c(Cl)c(C(=O)O)n2)cc1 [Compound 91]
[1]; 125 g ai/ha
  Plant response rating, Ducksalad: 100
[1]; 500 g ai/ha
  Plant response rating, Ducksalad: 100
[2]; 125 g ai/ha
  Plant response rating, Barnyardgrass: 0
[2]; 500 g ai/ha
  Plant response rating, Barnyardgrass: 20
[3]; 125 g ai/ha
  Plant response rating, Sedge, Umbrella: 80
[3]; 500 g ai/ha
  Plant response rating, Sedge, Umbrella: 90
Rice (Oryza sativa); 125 g ai/ha
  Plant response rating, Rice: 0
Rice (Oryza sativa); 500 g ai/ha
  Plant response rating, Rice: 0

## COC(=O)c1nc(-c2ccc(Br)cc2)nc(N)c1Cl [Compound 96, methyl 6-amino-2-(4-bromophenyl)-5-chloro-4-pyrimidinecarboxylate]
[1]; [4]
  pest or weed control at 125 g/ha: 100%
[1]; [5]
  pest or weed control at 500 g/ha: 100%
[2]; [6]
  pest or weed control at 125 g/ha: 0%
[2]; [7]
  pest or weed control at 500 g/ha: 10%
[3]; [8]
  pest or weed control at 125 g/ha: 90%
[3]; [9]
  pest or weed control at 500 g/ha: 90%
Rice (Oryza sativa); [10]
  plant injury at 125 g/ha: 0%
Rice (Oryza sativa); [11]
  plant injury at 500 g/ha: 0%
